Test results from PubChem BioAssay AID1259408 (Genetic Toxicology Data Bank (GENE-TOX), 2018).
Active and inactive are the calls of the source. The rule behind the calls is not given here.

Tested on: GENE-TOX genotoxicity assays, various organisms and cells
Assay: GENE-TOX mutagenicity studies
[1] = Species/Cell Type: Salmonella typhimurium (one or more of the five standard strains: TA98, TA100, TA1535, TA1537, and TA1538), Assay Type: Histidine reverse gene mutation, Ames assay, Assay Code: SAL+, Evaluation Type: Evaluation A (Pre-1980)

With `O=[N+]([O-])c1ccc2c(c1)Cc1ccccc1-2` the mutagenic call (Species/Cell Type: Escherichia coli polA (W3110 vs P3478), Assay Type: Rec-assay, DNA effects (bacterial DNA repair), Assay Code: RE2T, Evaluation Type: Evaluation A (Pre-1980)) was “no conclusion”, the mutagenic call (Species/Cell Type: Escherichia coli polA (W3119 vs P3478), Assay Type: Rec-assay, DNA effects (bacterial DNA repair), Assay Code: RE1+, Evaluation Type: Evaluation A (Pre-1980)) was “active; positive” and the mutagenic call (Species/Cell Type: Mouse, Sex: Male, Assay Type: Sperm morphology, Assay Code: SPI-, Evaluation Type: Evaluation A (Pre-1980)) was “inactive; negative”. The mutagenic call (Species/Cell Type: Neurospora crassa, Assay Type: Aneuploidy, chromosome aberrations, Assay Code: NEN-, Evaluation Type: Evaluation A (Pre-1980)) was “inactive; negative”, the mutagenic call (Species/Cell Type: Nonhuman, Assay Type: Sister-chromatid exchange (SCE) in vitro, Assay Code: SC2+D, Dose Response: With dose response, Evaluation Type: Evaluation B (Post-1980)) was “active; positive” and the mutagenic call (Species/Cell Type: Nonhuman, Assay Type: Sister-chromatid exchange (SCE) in vivo, Assay Code: SC3+D, Dose Response: With dose response, Evaluation Type: Evaluation B (Post-1980)) was “active; positive”. The mutagenic call (Species/Cell Type: Saccharomyces cerevisiae, Assay Type: Mitotic recombination or gene conversion, Assay Code: YEH+, Evaluation Type: Evaluation A (Pre-1980)) was “active; positive”, the mutagenic call [1] was “active; positive” and the mutagenic call (Species/Cell Type: Salmonella typhimurium, Assay Type: Forward and reverse gene mutation, host-mediated assay, Assay Code: HMA+, Evaluation Type: Evaluation A (Pre-1980)) was “active; positive”. The mutagenic call (Species/Cell Type: Syrian hamster embryo (SHE) cells, Assay Type: Cell transformation, clonal assay, Assay Code: CTC+, Evaluation Type: Evaluation A (Pre-1980)) was “active; positive”.

For `Cc1ccc2c(ccc3c4ccccc4ccc23)c1`, the mutagenic call (Species/Cell Type: Salmonella typhimurium (one or more of the five standard strains: TA98, TA100, TA1535, TA1537, and TA1538), Assay Type: Histidine reverse gene mutation, Ames assay, Assay Code: SAL+*, Activation: With metabolic activation, Evaluation Type: Evaluation A (Pre-1980)) was “active; positive”.

For `COc1cc([N+](=O)[O-])c2ncccc2c1`, the mutagenic call [1] was “active; positive”.

`COP(=S)(OC)Oc1ccc(SC)c(C)c1` was tested, and the mutagenic call (Species/Cell Type: Bacillus subtilis (H17 vs M45), Assay Type: Rec-assay, spot test, DNA effects (bacterial DNA repair), Assay Code: REWT, Evaluation Type: Evaluation A (Pre-1980)) was “no conclusion”, the mutagenic call (Species/Cell Type: Drosophila melanogaster, Assay Type: Sex-linked recessive lethal gene mutation, Assay Code: SRLT, Evaluation Type: Evaluation A (Pre-1980)) was “no conclusion” and the mutagenic call (Species/Cell Type: Escherichia coli WP2 UVRA, Assay Type: Tryptophan reverse gene mutation, Assay Code: WPU-*, Activation: With metabolic activation, Evaluation Type: Evaluation A (Pre-1980)) was “inactive; negative”. For the same compound, the mutagenic call (Species/Cell Type: Escherichia coli polA (W3119 vs P3478), Assay Type: Rec-assay, DNA effects (bacterial DNA repair), Assay Code: RE1T, Evaluation Type: Evaluation A (Pre-1980)) was “no conclusion”, the mutagenic call (Species/Cell Type: Human diploid fibroblasts, Assay Type: Unscheduled DNA synthesis (UDS) in vitro, DNA effects, Assay Code: UDH-, Evaluation Type: Evaluation A (Pre-1980)) was “inactive; negative” and the mutagenic call (Species/Cell Type: Human, Assay Type: Sister-chromatid exchange (SCE) in vitro, Assay Code: SC1T, Evaluation Type: Evaluation B (Post-1980)) was “no conclusion”. For the same compound, the mutagenic call (Species/Cell Type: Nonhuman, Assay Type: Sister-chromatid exchange (SCE) in vitro, Assay Code: SC2+D*, Activation: With metabolic activation, Dose Response: With dose response, Evaluation Type: Evaluation B (Post-1980)) was “active; positive” and the mutagenic call (Species/Cell Type: Saccharomyces cerevisiae, Assay Type: Mitotic recombination or gene conversion, Assay Code: YEH-, Evaluation Type: Evaluation A (Pre-1980)) was “inactive; negative”.

In the case of `N[C@H](Cc1ccc(N(CCCl)CCCl)cc1)C(=O)O`, the mutagenic call (Species/Cell Type: Drosophila melanogaster, Assay Type: Sex-linked recessive lethal gene mutation, Assay Code: SRL+, Evaluation Type: Evaluation A (Pre-1980)) was “active; positive”.

With `CCN(Cc1ccc(CN(CC)C(=O)C(Cl)Cl)cc1)C(=O)C(Cl)Cl` the mutagenic call (Species/Cell Type: Human, Sex: Male, Assay Type: Sperm morphology, Assay Code: SPH+, Evaluation Type: Evaluation A (Pre-1980)) was “active; positive”.

For `COc1ccc2c(ccc3c4c(ccc32)C(C)CC4)c1` (stereo not drawn), the mutagenic call (Species/Cell Type: Salmonella typhimurium (one or more of the five standard strains: TA98, TA100, TA1535, TA1537, and TA1538), Assay Type: Histidine reverse gene mutation, Ames assay, Assay Code: SALT, Evaluation Type: Evaluation A (Pre-1980)) was “no conclusion”.
